The term AUC denotes the area under the concentration-time curve, a measure of exposure. Usually Cmax stands for the peak of the concentration-time curve. Broadly, the Vd/F is the apparent distribution volume after extravascular dosing. Usually Tmax stands for the time at which the peak concentration occurs.

Each structure is given as a SMILES string. Read-outs that look alike come from different tables or passages of the source.

Data on 13 molecules can be found in patent US8420122B2, “Process for the precipitation and isolation of 6,6-dimethyl-3-aza-bicyclo [3.1.0] hexane-amide compounds by controlled precipitation and pharmaceutical formulations containing same” (Merck Sharp & Dohme Corp., priority 2006, dated 2013).

The nature of data set [1]: Aggregated / median particle size and size distribution. Conditions: for Aggregated particle size: additional runs A, B, C (mixing Tee). It is filed as physicochemical. On the procedure: As used herein “median precipitated particle size” “median aggregate particle size” and “particulate size distribution” are determined by Laser Diffraction […] measurements.
Data set [2] is described as follows: BET surface area (bulk surface area). It is filed as physicochemical. Particulars: for bulk surface area after distillation step: final granulate product.
Data set [3] in a line: Comparative PK Results-2: Day 5 multiple-dose pharmacokinetics. The format is in vivo, human. Particulars: for Tmax: read-out: Tmax, median; for half-life: read-out: t1/2, mean (converted). As to the method:
Pharmacokinetic samples for the determination of plasma concentrations of the compound of Formula B were collected on Day 5 of each period. PK samples were collected predose (0 hour), 1, 2, 3, 4, 6, 8, 12, and 24-hours postdose.

Data set [4] can be described thus: Chord length by Focused Beam Reflectance Measurements (FBRM). It is filed as physicochemical. Particulars: Example I first run, slurry, 0.41 M MTBE solution, 20° C. On the procedure: (§1) For the Examples which follow, particle size information was acquired by measuring the particulate material produced in the slurry using Focused Beam Reflectance Measurements (FBRM) performed with a Lasentec probe from Mettler Toledo in accordance with manufacturers directions for obtaining such measurements. Measurements were carried out on a sample of the slurry as obtained from the holding tank prior to vacuum distillation. The procedure and equipment can measure particulate materials over a size range of from 1 micron up to 1000 microns. Primary particle size was characterized qualitatively by Scanning Electron Microscopy (SEM). Changes in particle aggregation and aggregate morphology were observed by SEM under various conditions to determine softening point of the precipitated material. For SEM determination of softening point, a sample of the slurry was obtained periodically at each temperature interval as the slurry was heated. The solids in the sample were collected by filtration, dried under vacuum for 1 to 2 hours and the dried sample was examined using conventional SEM. […] The softening point was inferred from the sampling temperature at which the precipitate began to show loss of nodular particle appearance when examined by SEM in this manner.

Data set [5] can be described thus: Primary particle size and morphology by Scanning Electron Microscopy (SEM). It is filed as physicochemical. As to the method:
As used herein “primary particle” is the initially formed particles nucleated by combining a solution and anti-solvent. “Primary particle size” refers to the size of a primary particle and is determined by Scanning Electron Microscopy (SEM).
For the Examples which follow, particle size information was acquired by measuring the particulate material produced in the slurry using Focused Beam Reflectance Measurements (FBRM) performed with a Lasentec probe from Mettler Toledo in accordance with manufacturers directions for obtaining such measurements. Measurements were carried out on a sample of the slurry as obtained from the holding tank prior to vacuum distillation. The procedure and equipment can measure particulate materials over a size range of from 1 micron up to 1000 microns. Primary particle size was characterized qualitatively by Scanning Electron Microscopy (SEM). Changes in particle aggregation and aggregate morphology were observed by SEM under various conditions to determine softening point of the precipitated material. For SEM determination of softening point, a sample of the slurry was obtained periodically at each temperature interval as the slurry was heated. The solids in the sample were collected by filtration, dried under vacuum for 1 to 2 hours and the dried sample was examined using conventional SEM. […]

Data set [6] in a line: Bulk density / tapped density. It is filed as physicochemical. As to the method:
The particulate prepared above was recovered by pressure filtration and vacuum dried under house vacuum (approximately 60 to 70 torr) for 2 hours at 25 C followed by 8 hours of house vacuum at 35 C. The product was finish-dried at 45 C under house vacuum for an additional 16 hours. The dried particulate was evaluated and found to have a primary particle size ranging from less than 1 micron up to about 2 microns. The specific surface area (BET absorption method) was determined to be about 19.11 m2/g. The bulk density of isolated material was determined by weighing a 25 ml (unpacked) sample.

Data set [7] can be described thus: Softening point of precipitate (FBRM during controlled heating). It is filed as physicochemical. On the procedure: as §1
Verified by SEM observations, it was shown also that softening point could be determined from FBRM measurements (taken in accordance with manufactures instructions) made on a sample of the slurry undergoing controlled heating. […] FBRM measurements were obtained continuously during the heating cycle and the softening point was determined to be the temperature corresponding to the maxima in the particle count curve over the heating regime.
A precipitate slurry of the compound of Formula B was prepared by setting the flow control valves to supply 3400 ml/min. of n-heptane and 840 ml/min of the MTBE/compound of Formula B solution. […] An aliquot of the slurry thus produced was also evaluated to determine the softening point of the precipitate therein. […] In this manner the softening temperature was determined to be at 36.2 C.

Data set [8] deals with QT/QTc intervals. Put plainly: QT/QTc study, mean QTcF change from time-matched baseline. Particulars: for QT interval (mean QTcF change from time-matched baseline): Day 5, relative to placebo.
Description: A study was conducted to evaluate the effect of both a therapeutic (800 mg TID) and a supratherapeutic (1200 mg TID) dose of the compound of Formula B at steay-state on QT/QTc intervals, as measured by mean maximum change from time-matched baseline ECG recordings compared to placebo.
Thirty-six subjects who met entry criteria received one of four study treatments for Days 1 to 5 of each treatment period. This study was conducted in a 4-way crossover manner so that subjects were randomized to receive the 4 study treatments in one of four sequences. Prior to treatment crossover, subjects completed an approximately 1-week outpatient washout period.
[9] abbreviates: additional runs A, B, C, precipitate before distillation.
The mark [10] stands for this setting: 800 mg TID, Day 5, healthy subjects, n = 31.
The mark [11] stands for this setting: human, plasma, oral, 800 mg TID, Day 5, healthy subjects, n = 31.
[12] abbreviates: human, plasma, oral, 1200 mg TID, Day 5, healthy subjects, n = 35.
[13] abbreviates: Example I first run, dried particulate.
The mark [14] stands for this setting: Example I second run, isolated material.
[15] abbreviates: Comparative Example I, stirred batch reactor.

Take `CC(C)(C)NC(=O)NC(C(=O)N1CC2C([C@H]1C(=O)NC(CC1CCC1)C(=O)C(N)=O)C2(C)C)C(C)(C)C` (stereo partly shown) [Example C3]: the Aggregated particle size in data set [1] is given as 10-20 microns.
In the case of `CC(C)(C)NC(=O)NC(C(=O)N1CC2C([C@H]1C(=O)NC(CC1CCC1)C(=O)C(N)=O)C2(C)C)C(C)(C)C` (stereo partly shown) [Example B1], in data set [1], the Aggregated particle size is on record as 10-20 microns. Further, the “BET Surface area” value in data set [2] (setting [9]) is on record as 32.75 m^2/g.
Consider `CC(C)(C)NC(=O)NC(C(=O)N1CC2C([C@H]1C(=O)NC(CC1CCC1)C(=O)C(N)=O)C2(C)C)C(C)(C)C` (stereo partly shown) [Example C2], for which, in data set [1], the Aggregated particle size is recorded as 0.25-18 microns. Besides, the “BET Surface area” value in data set [2] (setting [9]) was 32.41 m^2/g. Moreover, the “bulk surface area after distillation step” value in data set [2] was 6.31 m^2/g.
Consider `CC(C)(C)NC(=O)NC(C(=O)N1CC2C([C@H]1C(=O)NC(CC1CCC1)C(=O)C(N)=O)C2(C)C)C(C)(C)C` (stereo partly shown) [Example A2], for which, in data set [1], the Aggregated particle size was 10-20 microns. The “BET Surface area” value in data set [2] (setting [9]) was 16.44 m^2/g.
With `CC(C)(C)NC(=O)NC(C(=O)N1CC2C([C@H]1C(=O)NC(CC1CCC1)C(=O)C(N)=O)C2(C)C)C(C)(C)C` (stereo partly shown) [Example B3], in data set [1], the Aggregated particle size is 10-20 microns. Further, in data set [2] (setting [9]), the “BET Surface area” value was 32.00 m^2/g.
Turning to `CC(C)(C)NC(=O)NC(C(=O)N1CC2C([C@H]1C(=O)NC(CC1CCC1)C(=O)C(N)=O)C2(C)C)C(C)(C)C` (stereo partly shown) [Example B2], the Aggregated particle size in data set [1] is on record as 10-20 microns. The “BET Surface area” value in data set [2] (setting [9]) amounted to 25.68 m^2/g.
`CC(C)(C)NC(=O)NC(C(=O)N1CC2C([C@H]1C(=O)NC(CC1CCC1)C(=O)C(N)=O)C2(C)C)C(C)(C)C` (stereo partly shown) [compound of Formula B, 3-[2-(3-tert-Butyl-ureido)-3,3-dimethyl-butyryl]-6,6-dimethyl-3-aza-bicyclo[3.1.0]hexane-2-carboxylic acid (2-carbamoyl-1-cyclobutylmethyl-2-oxo-ethyl)-amide]: the “CL/F, mean” value in data set [3] (setting [10]) was found to be 158 L/h; in data set [3] (1200 mg TID, Day 5, healthy subjects, n = 35), 196 L/h. The “Cmin, mean” value in data set [3] (setting [10]) is 61.9 ng/mL. For the same molecule, the AUC in data set [3] (human, plasma, oral, 800 mg, 800 mg TID, Day 5, healthy subjects, n = 31, read-out: AUC(τ), mean) was 5320 ng·h/mL; in data set [3] (human, plasma, oral, 800 mg, 800 mg TID, Day 5, read-out: Individual AUC(τ) values, range), 3250 to 8900 ng·h/mL; in data set [3] (human, plasma, oral, 1200 mg, 1200 mg TID, Day 5, healthy subjects, n = 35, read-out: AUC(τ), mean), 6500 ng·h/mL; in data set [3] (human, plasma, oral, 1200 mg, 1200 mg TID, Day 5, read-out: Individual AUC(τ) values, range), 2500 to 9400 ng·h/mL. Besides, the Cmax in data set [3] (human, plasma, oral, 800 mg, 800 mg TID, Day 5, healthy subjects, n = 31, sum of diastereomers, read-out: Cmax, mean) is 1690 ng/mL; in data set [3] (human, plasma, oral, 800 mg, 800 mg TID, Day 5, read-out: Individual Cmax values, range) it was 1150 to 2500 ng/mL; in data set [3] (human, plasma, oral, 1200 mg, 1200 mg TID, Day 5, healthy subjects, n = 35, sum of diastereomers, read-out: Cmax, mean) it was 1940 ng/mL; in data set [3] (human, plasma, oral, 1200 mg, 1200 mg TID, Day 5, read-out: Individual Cmax values, range) it was 1100 to 3150 ng/mL. The Vd/F in data set [3] (setting [11]) came to 530 L; in data set [3] (setting [12]) it was 879 L. Besides, the Tmax in data set [3] (setting [11]) and in data set [3] (setting [12]) was 2 h throughout. The values for the half-life in data set [3] (setting [11]) and in data set [3] (setting [12]) were 2.31 h and 3.01 h, respectively. Further, in data set [3] (human, plasma, oral, 1200 mg TID, Day 5, healthy subjects, n = 35, read-out: Cmin, mean), the concentration at 5 day turned out to be 79.9 ng/mL. Also, the “average chord length of agglomerated particulate” value in data set [4] came to 15.8 microns. Further, the primary particle size entry is given as “less than 1 micron up to about 2 microns” in data set [5] (setting [13]) and “less than 1 micron” in data set [5] (Example I second run, after distillation, isolated material). The “agglomerated average particle size” value in data set [1] (setting [14]) came out at 11 microns. Also, the median particulate size in data set [1] (Example II precipitate) was 1.57 microns; in data set [1] (Example III precipitate), 1.46 microns. In data set [2] (setting [15]), this molecule registered a BET Surface area of 1.76 m^2/g. Further, in data set [2] (setting [13]), the “specific surface area (BET absorption method)” value is given as “about 19.11 m2/g”. Moreover, the “average bulk surface area (BET)” value in data set [2] (setting [14]) is given as “about 10.3 m^2/g”. Further, the bulk surface area in data set [2] (Example II precipitate) came to 8.14 m^2/g; in data set [2] (Example III precipitate), 7.2 m^2/g. For the same molecule, the bulk density in data set [6] (setting [15]) was 0.16 g/mL; in data set [6] (Example I first run, isolated material) it was 0.3 g/mL; in data set [6] (Example II precipitate), 0.23 g/mL; in data set [6] (Example III precipitate) it was 0.18 g/mL. The molecule also displayed a bulk density average in data set [6] (Example I second run, isolated particulate) of 0.191 g/cm³. In addition, the “softening point of the wet cake” value in data set [7] (setting [15]) was “below 30 °C”. The same molecule had a softening temperature in data set [7] (Example I first run, slurry aliquot heated 1 C/min) of 36.2 C. In data set [7] (Example I second run, slurry distilled to about 35% of original volume), this molecule showed a softening point of 51.6 °C. Besides, the “QT interval (mean QTcF change from time-matched baseline)” value in data set [8] (800 mg therapeutic dose (LD) TID) and in data set [8] (1200 mg supratherapeutic dose (HD) TID) was “does not prolong the QT interval” in each case.
In the case of `CC(C)(C)NC(=O)NC(C(=O)N1CC2C([C@H]1C(=O)NC(CC1CCC1)C(=O)C(N)=O)C2(C)C)C(C)(C)C` (stereo partly shown) [Example A1], in data set [1], the Aggregated particle size is on record as 10-20 microns. Besides, in data set [2] (setting [9]), the “BET Surface area” value is 30.19 m^2/g.
For the molecule `CC(C)(C)NC(=O)NC(C(=O)N1CC2C([C@H]1C(=O)NC(CC1CCC1)C(=O)C(N)=O)C2(C)C)C(C)(C)C` (stereo partly shown) [Example A3], in data set [1], the Aggregated particle size was 20-30 microns. Further, the “BET Surface area” value in data set [2] (setting [9]) came out at 17.41 m^2/g.
On to `CC(C)(C)NC(=O)NC(C(=O)N1CC2C([C@H]1C(=O)NC(CC1CCC1)C(=O)C(N)=O)C2(C)C)C(C)(C)C` (stereo partly shown) [Example C1], for which the Aggregated particle size in data set [1] is on record as 0.25-25.5 microns. The “BET Surface area” value in data set [2] (setting [9]) came to 24.85 m^2/g. The “bulk surface area after distillation step” value in data set [2] stood at 6.13 m^2/g.
As for `CC(C)(C)NC(=O)NC(C(=O)N1CC2C([C@H]1C(=O)NC(CC1CCC1)C(=O)C(N)=O)C2(C)C)C(C)(C)C` (stereo partly shown) [Example C4], the Aggregated particle size in data set [1] was 10-20 microns.
For the molecule `CC(C)(C)NC(=O)NC(C(=O)N1CC2C([C@H]1C(=O)NC(CC1CCC1)C(=O)C(N)=O)C2(C)C)C(C)(C)C` (stereo partly shown) [Example B4], the “BET Surface area” value in data set [2] (setting [9]) was 24.24 m^2/g.
As to `COc1c(N2C[C@@H]3CCCN[C@@H]3C2)c(F)cc2c(=O)c(C(=O)O)cn(C3CC3)c12` [moxifloxacin, reference compound], the “QT/QTc interval (mean QTcF change from time-matched baseline)” value in data set [8] (400 mg QD, positive control) is reported as “lengthened QT/QTc interval”.
